Where a SMILES comes first, the peptide text is derived from it. Bridges are numbered along the chain shown (N, C = ends). [ ]: non-standard residue; d: D form. The star is where a group is joined. ξ: configuration not given here. Phe(4-COOH) = N[C@@H](Cc1ccc(C(=O)O)cc1)C(=O)O; Bip = N[C@@H](Cc1ccc(-c2ccccc2)cc1)C(=O)O; Phe(3-Me) = Cc1cccc(C[C@H](N)C(=O)O)c1; Cha = N[C@@H](CC1CCCCC1)C(=O)O; Cit = NC(=O)NCCC[C@H](N)C(=O)O; NMeN = CN[C@@H](CC(N)=O)C(=O)O; Thr(3ξ) = CC(O)[C@H](N)C(=O)O; Carboxymethyl = O=C(O)C*; NMeA = CN[C@@H](C)C(=O)O; Aun = NCCCCCCCCCCC(=O)O; Dab = NCC[C@H](N)C(=O)O; AEEA = NCCOCCOCC(=O)O; Sar = CNCC(=O)O

In this experiment the target is T1, PD-1/PD-L1 interaction (PE-labeled human PD-L1-Ig binding to Jurkat cell line over-expressing human PD-1) (Homo sapiens, UniProt Q15116).
T1 construct: expressed in transfected cells; host or cells: Jurkat
T1 sequence (Q15116 25-288): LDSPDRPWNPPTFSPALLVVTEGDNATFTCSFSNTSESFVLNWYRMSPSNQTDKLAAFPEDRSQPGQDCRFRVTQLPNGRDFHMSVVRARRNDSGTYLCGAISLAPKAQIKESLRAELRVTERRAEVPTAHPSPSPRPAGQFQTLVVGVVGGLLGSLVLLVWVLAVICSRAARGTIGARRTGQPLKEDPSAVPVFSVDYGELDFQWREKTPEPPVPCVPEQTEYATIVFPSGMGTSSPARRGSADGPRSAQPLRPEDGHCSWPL
As to the kind of experiment: Jurkat-PD-1 Cell Binding High-Content Screening Assay (CBA). The conditions noted are these: Jurkat-hPD-1 cells, PE-labeled PD-L1-Ig 20 nM final; read-out: Jurkat HPD1 PDL1 IC50. A digest of the protocol: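 Compound is added first to the PD-1-expressing Jurkat cells and held 2 h at 37 °C in serum-containing DMEM. The fluorescent PD-L1 fusion follows at 20 nM final for 1 h. Fixed, Hoechst-stained cells are then imaged for bound label.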
One may read the IC50 as the concentration at which inhibition is half-maximal. For the compound `CC(=O)NCCCC[C@@H]1NC(=O)[C@H](C(C)C)NC(=O)[C@H](CC2CCCCC2)NC(=O)[C@H](CCN)NC(=O)[C@@H](CC(C)C)NC(=O)[C@H](C)N(C)C(=O)[C@H](C(C)C)NC(=O)[C@H](Cc2ccc(-c3ccccc3)cc2)NC(=O)[C@H](C(C)C)NC(=O)[C@H](Cc2cccc(C)c2)NC(=O)[C@H](CC(=O)O)NC(=O)[C@H](Cc2ccc(OCC(=O)O)cc2)NC(=O)[C@H](C(C)O)NC(=O)CSC[C@@H](C(=O)N(C)CC(=O)NCCOCCOCC(=O)NCCCCCCCCCCC(=O)O)NC1=O` (stereo partly drawn) [Example 2304] ({CH2CO}-[Thr(3ξ)]Y(Carboxymethyl)D[Phe(3-Me)]V[Bip]V[NMeA][dL][Dab][Cha]VK(Ac)C[Sar][AEEA][Aun]-OH; thioether N-14), the IC50 stood at 31.3 nM.

Consider `Cc1cccc(C[C@@H]2NC(=O)[C@H](CC(=O)O)NC(=O)[C@H](Cc3ccc(OCC(=O)O)cc3)NC(=O)[C@H](C(C)O)NC(=O)CSC[C@@H](C(=O)N(C)[C@@H](CC(N)=O)C(=O)NCCOCCOCC(=O)NCCCCCCCCCCC(=O)O)NC(=O)[C@H](CCCNC(N)=O)NC(=O)[C@H](C(C)C)NC(=O)[C@H](CC3CCCCC3)NC(=O)[C@H](CCN)NC(=O)[C@@H](CC(C)C)NC(=O)[C@H](C)N(C)C(=O)[C@H](C(C)C)NC(=O)[C@H](Cc3ccc(-c4ccccc4)cc3)NC(=O)[C@H](C(C)C)NC2=O)c1` (stereo partly drawn) [Example 2305] ({CH2CO}-[Thr(3ξ)]Y(Carboxymethyl)D[Phe(3-Me)]V[Bip]V[NMeA][dL][Dab][Cha]V[Cit]C[NMeN][AEEA][Aun]-OH; thioether N-14), for which the IC50 came out at 19.9 nM.

Consider `Cc1cccc(C[C@@H]2NC(=O)[C@H](CC(=O)O)NC(=O)[C@H](Cc3ccc(OCC(=O)O)cc3)NC(=O)[C@H](CCCNC(=N)N)NC(=O)CSC[C@@H](C(=O)N[C@@H](CCN)C(=O)NCCCCCCCCCCC(=O)O)NC(=O)[C@H](C(C)O)NC(=O)[C@H](C(C)C)NC(=O)[C@H](CC3CCCCC3)NC(=O)[C@H](CCN)NC(=O)[C@@H](CC(C)C)NC(=O)[C@H](C)N(C)C(=O)[C@H](Cc3ccc(OCC(=O)O)cc3)NC(=O)[C@H](Cc3ccc(-c4ccccc4)cc3)NC(=O)[C@H](CCC(=O)O)NC2=O)c1` (stereo partly drawn) [Example 2306] ({CH2CO}-RY(Carboxymethyl)D[Phe(3-Me)]E[Bip]Y(Carboxymethyl)[NMeA][dL][Dab][Cha]V[Thr(3ξ)]C[Dab][Aun]-OH; thioether N-14), for which the IC50 worked out at 14.3 nM.

Turning to `Cc1cccc(C[C@@H]2NC(=O)[C@H](CC(=O)O)NC(=O)[C@H](Cc3ccc(OCC(=O)O)cc3)NC(=O)[C@H](CCCNC(=N)N)NC(=O)CSC[C@@H](C(=O)N[C@@H](CCN)C(=O)NCCCCCCCCCCC(=O)O)NC(=O)[C@H](C(C)O)NC(=O)[C@H](C(C)C)NC(=O)[C@H](CC3CCCCC3)NC(=O)[C@H](CCN)NC(=O)[C@@H](CC(C)C)NC(=O)[C@H](C)N(C)C(=O)[C@H](Cc3ccc(OCC(=O)O)cc3)NC(=O)[C@H](Cc3ccc(-c4ccccc4)cc3)NC(=O)[C@H](Cc3ccc(OCC(=O)O)cc3)NC2=O)c1` (stereo partly drawn) [Example 2307] ({CH2CO}-RY(Carboxymethyl)D[Phe(3-Me)]Y(Carboxymethyl)[Bip]Y(Carboxymethyl)[NMeA][dL][Dab][Cha]V[Thr(3ξ)]C[Dab][Aun]-OH; thioether N-14), the 50% inhibitory concentration (IC50) came out at 13.8 nM.

For the compound `Cc1cccc(C[C@@H]2NC(=O)[C@H](CC(=O)O)NC(=O)[C@H](Cc3ccc(OCC(=O)O)cc3)NC(=O)[C@H](CCCNC(=N)N)NC(=O)CSC[C@@H](C(=O)N[C@@H](CCN)C(=O)NCCCCCCCCCCC(=O)O)NC(=O)[C@H](C(C)O)NC(=O)[C@H](C(C)C)NC(=O)[C@H](CC3CCCCC3)NC(=O)[C@H](CCN)NC(=O)[C@@H](CC(C)C)NC(=O)[C@H](C)N(C)C(=O)[C@H](Cc3ccc(OCC(=O)O)cc3)NC(=O)[C@H](Cc3ccc(-c4ccccc4)cc3)NC(=O)[C@H](C(C)C)NC2=O)c1` (stereo partly drawn) [Example 2308] ({CH2CO}-RY(Carboxymethyl)D[Phe(3-Me)]V[Bip]Y(Carboxymethyl)[NMeA][dL][Dab][Cha]V[Thr(3ξ)]C[Dab][Aun]-OH; thioether N-14), the half-maximal inhibitory concentration (IC50) is 21.1 nM.

For the compound `Cc1cccc(C[C@@H]2NC(=O)[C@H](CC(=O)O)NC(=O)[C@H](Cc3ccc(OCC(=O)O)cc3)NC(=O)[C@H](C(C)O)NC(=O)CSC[C@@H](C(=O)N[C@@H](CCN)C(=O)NCCCCCCCCCCC(=O)O)NC(=O)[C@H](C(C)O)NC(=O)[C@H](C(C)C)NC(=O)[C@H](CC3CCCCC3)NC(=O)[C@H](CCN)NC(=O)[C@@H](CC(C)C)NC(=O)[C@H](C)N(C)C(=O)[C@H](Cc3ccc(OCC(=O)O)cc3)NC(=O)[C@H](Cc3ccc(-c4ccccc4)cc3)NC(=O)[C@H](C(C)C)NC2=O)c1` (stereo partly drawn) [Example 2309] ({CH2CO}-[Thr(3ξ)]Y(Carboxymethyl)D[Phe(3-Me)]V[Bip]Y(Carboxymethyl)[NMeA][dL][Dab][Cha]V[Thr(3ξ)]C[Dab][Aun]-OH; thioether N-14), the IC50 was determined as 27.9 nM.

On to `Cc1cccc(C[C@@H]2NC(=O)[C@H](CC(=O)O)NC(=O)[C@H](Cc3ccc(OCC(=O)O)cc3)NC(=O)[C@H](C(C)O)NC(=O)CSC[C@@H](C(=O)N[C@@H](CCN)C(=O)NCCCCCCCCCCC(=O)O)NC(=O)[C@H](C(C)O)NC(=O)[C@H](C(C)C)NC(=O)[C@H](CC3CCCCC3)NC(=O)[C@H](CCN)NC(=O)[C@@H](CC(C)C)NC(=O)[C@H](C)N(C)C(=O)[C@H](Cc3ccc(OCC(=O)O)cc3)NC(=O)[C@H](Cc3ccc(-c4ccccc4)cc3)NC(=O)[C@H](Cc3ccc(OCC(=O)O)cc3)NC2=O)c1` (stereo partly drawn) [Example 2310] ({CH2CO}-[Thr(3ξ)]Y(Carboxymethyl)D[Phe(3-Me)]Y(Carboxymethyl)[Bip]Y(Carboxymethyl)[NMeA][dL][Dab][Cha]V[Thr(3ξ)]C[Dab][Aun]-OH; thioether N-14), for which the IC50 was found to be 12.1 nM.

Regarding `Cc1cccc(C[C@@H]2NC(=O)[C@H](CC(=O)O)NC(=O)[C@H](Cc3ccc(OCC(=O)O)cc3)NC(=O)[C@H](C(C)O)NC(=O)CSC[C@@H](C(=O)N[C@@H](CCN)C(=O)NCCCCCCCCCCC(=O)O)NC(=O)[C@H](C(C)O)NC(=O)[C@H](C(C)C)NC(=O)[C@H](CC3CCCCC3)NC(=O)[C@H](CCN)NC(=O)[C@@H](CC(C)C)NC(=O)[C@H](C)N(C)C(=O)[C@H](Cc3ccc(C(=O)O)cc3)NC(=O)[C@H](Cc3ccc(-c4ccccc4)cc3)NC(=O)[C@H](Cc3ccc(C(=O)O)cc3)NC2=O)c1` (stereo partly drawn) [Example 2311] ({CH2CO}-[Thr(3ξ)]Y(Carboxymethyl)D[Phe(3-Me)][Phe(4-COOH)][Bip][Phe(4-COOH)][NMeA][dL][Dab][Cha]V[Thr(3ξ)]C[Dab][Aun]-OH; thioether N-14), the IC50 was 21.3 nM.

`Cc1cccc(C[C@@H]2NC(=O)[C@H](CC(=O)O)NC(=O)[C@H](Cc3ccc(OCC(=O)O)cc3)NC(=O)[C@H](CCCNC(=N)N)NC(=O)CSC[C@@H](C(=O)N[C@H](CC(N)=O)C(=O)NCCCCCCCCCCC(=O)O)NC(=O)[C@H](C(C)O)NC(=O)[C@H](C(C)C)NC(=O)[C@H](CC3CCCCC3)NC(=O)[C@H](CCN)NC(=O)[C@@H](CC(C)C)NC(=O)[C@H](C)N(C)C(=O)[C@H](CCCNC(N)=O)NC(=O)[C@H](Cc3ccc(-c4ccccc4)cc3)NC(=O)[C@H](C(C)C)NC2=O)c1` (stereo partly drawn) [Example 2312] ({CH2CO}-RY(Carboxymethyl)D[Phe(3-Me)]V[Bip][Cit][NMeA][dL][Dab][Cha]V[Thr(3ξ)]C[dN][Aun]-OH; thioether N-14): the concentration for half-maximal inhibition (IC50) worked out at 8.7 nM.

(Values after patent US20260070945A1, “MACROCYCLIC IMMUNOMODULATORS” (Bristol-Myers Squibb Company, priority 2022, published 2026).)
